US20190358247A1 (The Medical College of Wisconsin, Inc., priority 2016, published 2019)

How the values were obtained:
AMPK = assay: Immunoblot of phosphorylated AMPK Thr-172 relative to total AMPK, MiaPaCa-2 cells; assay type: cell-based, human
Protocol: In this example, the inventors have shown that the mito-met compounds of the present invention cause an increased AMPK activation in cancer cells. In preliminary experiments (FIG. 4), human MiaPaCa2 and murine FC1199 PDAC cells treated 30 min with 1 μM mito-met (MM), 1 mM Met, or the oligomycin positive control were lysed, and proteins size-separated on SDS-PAGE, transferred to PVDF, and probed with an antibody to phosphorylated AMPK Thr-172.
Immunoblotting. MiaPaCa-2 PDAC cells (1×10^6) were plated to 80% confluency in 60 mm dishes and then serum-starved for 5 hours. […] Cells were stimulated with oligomycin as a positive control. After stimulation, cells were washed twice in cold PBS and lysed using a modified RIPA buffer. Lysates were normalized for protein concentration, size separated using reducing SDS-PAGE, electro-transferred to PVDF membranes (Millipore) and then probed using primary and horseradish peroxidase-conjugated secondary antibodies. Antibodies against total or phosphorylated 5′ AMP-activated protein kinase (AMPK) were purchased from Cell Signaling Technology (Danvers, Mass.) and used at the manufacturer's recommended dilutions. Proteins were visualized by chemiluminescence with auto-exposure and quantified by densitometric analysis using the FluorChem HD2 from Cell Biosciences (Santa Clara, Calif.).
AMPK activation in Mito-Met and Met-treated PDAC cells. […]

FC1242-luc = assay: Orthotopic syngeneic FC1242-luc engraftment model, tumor growth; assay type: in vivo, C57BL/6 mice; details: for in vivo tumor growth compared with Met: 1 mg/kg daily i.p.
From the text: In vivo studies and bioluminescence imaging.

HaCaT = assay: IncuCyte cell confluence assay, keratinocytes; assay type: cell-based
Protocol: IncuCyte Analyzer-real time measurement of cell proliferation. The cell proliferation was measured using a label-free, noninvasive cellular confluence assay by IncuCyte Live-Cell Imaging Systems (Essen Bioscience, Ann Arbor, Mich., USA; IncuCyte FLR). This system enables collection of live cell images at 2 h intervals over several days. The IncuCyte Analyzer provides real-time cellular confluence data based on segmentation of high-definition phase-contrast images. The cell proliferation is expressed as an increase in percentage of cell confluence.

[1] = mouse
Protocol: In an initial proof-of-concept experiment, syngeneic KPC cells expressing Firefly luciferase (FC1242-luc) were orthotopically implanted to the pancreas of C57BL/6 mice and tumor growth monitored using bioluminescence imaging (FIG. 15F). Mice orthotopically autografted with FC1242-luc cells were treated daily with 1 mg/kg or 150 mg/kg Met, or 1 mg/kg Mito-Met. […] Serum from these animals was collected, and hepatic and kidney toxicity tested using standard AST, ALT, AP, and BUN assays, respectively.

[2] = Tissue accumulation in FC1242-luc orthotopic mice; assay type: in vivo; details: 1 mg/kg daily for two weeks; liver, kidney, spleen, tumor
Protocol: FIG. 19. Tissue accumulation of Mito-Met in in vivo FC1242-luc orthotopic mouse model. FC1242-luc orthotopic mice treated with Mito-Met10 (1 mg/kg) daily for 2 weeks. Tissue harvesting and extractions were performed 3 days after the last treatment. Quantitative data on concentrations of Mito-Met after normalization to tissue wet weight are represented as mean±SD, n=5.

MiaPaCa-2 cells [3] = assay: Clonogenic (colony formation) assay; assay type: cell-based, human
Protocol: Clonogenic assay. […] The plates were kept within the incubator and media changed every 3-4 days until the control cells formed sufficiently large clones. The cell survival fractions were calculated as previously described.
MiaPaCa-2 cells were treated with a range of concentrations as shown (FIG. 10C), and the number of colonies formed were counted.

mitochondrial complex I = mitochondrial complex I (Homo sapiens, UniProt O75251+O75306+P03886); assay: Complex I oxygen consumption (pyruvate/malate) in permeabilized cells, Seahorse XF96; assay type: cell-based; set-up: IC50, complex I oxygen consumption; other: permeabilized MiaPaCa-2, added acutely
Chain of mitochondrial complex I (P03886 whole entry): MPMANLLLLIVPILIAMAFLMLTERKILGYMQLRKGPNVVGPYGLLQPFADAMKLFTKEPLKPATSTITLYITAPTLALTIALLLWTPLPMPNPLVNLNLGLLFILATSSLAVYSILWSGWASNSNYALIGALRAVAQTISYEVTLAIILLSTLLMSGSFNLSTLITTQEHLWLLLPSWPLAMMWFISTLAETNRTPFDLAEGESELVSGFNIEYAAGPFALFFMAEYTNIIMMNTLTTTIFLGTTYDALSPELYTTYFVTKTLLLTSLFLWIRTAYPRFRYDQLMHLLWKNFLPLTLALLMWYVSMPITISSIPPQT
Chain of mitochondrial complex I (O75251 39-213): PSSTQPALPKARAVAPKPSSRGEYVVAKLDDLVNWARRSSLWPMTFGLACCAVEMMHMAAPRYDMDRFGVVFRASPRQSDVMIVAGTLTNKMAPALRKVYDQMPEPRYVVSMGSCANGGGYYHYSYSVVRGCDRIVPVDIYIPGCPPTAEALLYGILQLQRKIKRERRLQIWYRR
Chain of mitochondrial complex I (P03897 whole entry, further chain): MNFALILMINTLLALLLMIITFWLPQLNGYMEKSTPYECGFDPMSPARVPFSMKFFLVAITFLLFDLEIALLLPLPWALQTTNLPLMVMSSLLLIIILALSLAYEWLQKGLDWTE
Chain of mitochondrial complex I (O75306 34-463): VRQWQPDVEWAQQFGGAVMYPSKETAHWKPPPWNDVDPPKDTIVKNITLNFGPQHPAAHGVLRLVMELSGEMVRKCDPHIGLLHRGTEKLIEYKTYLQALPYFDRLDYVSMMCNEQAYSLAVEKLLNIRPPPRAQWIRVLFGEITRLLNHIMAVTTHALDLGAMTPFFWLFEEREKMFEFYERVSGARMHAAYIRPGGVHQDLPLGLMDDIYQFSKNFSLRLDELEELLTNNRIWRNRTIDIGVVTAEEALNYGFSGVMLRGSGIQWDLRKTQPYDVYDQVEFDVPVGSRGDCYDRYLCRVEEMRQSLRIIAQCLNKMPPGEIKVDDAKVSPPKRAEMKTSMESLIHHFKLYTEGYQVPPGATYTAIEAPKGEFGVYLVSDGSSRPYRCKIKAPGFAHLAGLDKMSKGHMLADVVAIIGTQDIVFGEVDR
Chain of mitochondrial complex I (O75489 37-264, further chain): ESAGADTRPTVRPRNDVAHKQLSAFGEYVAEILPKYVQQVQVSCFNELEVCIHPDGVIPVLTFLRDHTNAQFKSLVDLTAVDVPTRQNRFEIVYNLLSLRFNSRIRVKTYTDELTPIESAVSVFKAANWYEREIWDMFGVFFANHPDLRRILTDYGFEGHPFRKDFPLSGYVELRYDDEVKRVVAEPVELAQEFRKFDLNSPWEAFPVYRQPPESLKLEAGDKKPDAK
Protocol: Respiratory enzyme activity in intact and permeabilized cells. The mitochondrial function in intact and permeabilized pancreatic cancer cells was measured using a Seahorse XF96 Extracellular Flux Analyzer (Seahorse Bioscience, North Billerica, Mass., USA). Unless specified otherwise, assays in intact cells were performed as previously described. Measurement of mitochondrial respiratory complexes in permeabilized cells was performed according to the manufacturer's instructions (Seahorse Bioscience). Briefly, intact cells were permeabilized using 1 nM Plasma Membrane Permeabilizer (PMP, Seahorse Bioscience) immediately before oxygen consumption rate (OCR) measurement by XF96. The oxygen consumption derived from mitochondrial complex I or complex II activity was measured by providing different substrates to mitochondria, e.g., pyruvate/malate for complex I and succinate for complex II activity. Rotenone, malonate and antimycin A were used as specific inhibitors of mitochondrial complex I, II and III activities, respectively.
The oxygen consumption rate was measured using the permeabilized MiaPaCa-2 cells in MAS buffer supplemented with pyruvate. The use of permeabilized cells avoids differences in cellular uptake of compounds. […] We tested the effect of pretreating cells with Mito-Met10 or Met using the permeabilized model. MiaPaCa-2 cells were treated with Met and Mito-Met10 for 24 h and the oxygen consumption studies were performed in these cells after permeabilization.

MiaPaCa-2 cells [4] = assay: Radiosensitization, clonogenic survival after X-radiation; assay type: cell-based, human
Protocol: MiaPaCa2 cells (1000 cells/well) were cultured in quadruplicate overnight in 96-well plates and changed to fresh medium.
Radiation experiments. […] The cells were then treated with X-radiation at a dose of 0, 2, 4, and 6 Gy. The control cells were treated with the same concentration of vehicle (0.1% DMSO) where appropriate. After irradiation, cells were suspended and seeded at various densities (100-8,000 cells per well) in 6-well plates for clonogenic assay as described above. The plates were kept within the incubator and media changed every 3-4 days for 2 weeks. Wells with 10-50 sufficiently large clones were chosen for calculating the cell survival fractions.
Effect of Mito-Met and Met on PDAC radiosensitivity. Both control cells and cells were pretreated for 24 h with 1 mM Met or Mito-Met (1 μM) prior to X-radiation. Cell survival was measured by a clonogenic assay.

Br.N=C(N)NC(=N)NCCCCCCCCCC[P+](c1ccccc1)(c1ccccc1)c1ccccc1 [Mito-Met10]
potency of AMPK activation relative to metformin (AMPK; MiaPaCa-2): ~1,000 fold
increase in active AMPK (phosphorylated relative to total protein) (AMPK; human MiaPaCa-2, 1 μM, 30 min): 1.5-2.5 fold
in vivo tumor growth compared with Met (FC1242-luc): considerably more potent than Met
in vivo tumor growth compared with Met (FC1242-luc; listed as Mito-Met): considerably more effective than Met
therapeutic index relative to Met (FC1242-luc; mouse, in vivo): ~1,000 fold
times more effective than Met in abrogating PDAC tumor growth (FC1242-luc; mouse, in vivo): at least 100 times
effect on cell confluence (HaCaT): not significantly affected
toxicity in vivo (hepatic and kidney) [1]: neither Met nor the mitochondria-targeted analog Mito-Met elicited toxicity
Kidney BUN ([1]; in vivo, 1 mg/kg): 27 ± 4 mg/dL
Liver ALT ([1]; in vivo, 1 mg/kg): 26 ± 10 IU/L
Liver AST ([1]; in vivo, 1 mg/kg): 89 ± 16 IU/L
tissue accumulation [2]: increased accumulation
colony formation (MiaPaCa-2 cells [3]; 3 μM, 24 h): Almost no colony formation
IC50 (MiaPaCa-2 cells [3]; read-out: IC50, colony formation / survival fraction, MiaPaCa-2, 24 h treatment): 1.1 µM
concentration at which OCR was inhibited (mitochondrial complex I; permeabilized MiaPaCa-2, added acutely): 10 µM
IC50 (mitochondrial complex I; read-out: IC50, complex I oxygen consumption, permeabilized MiaPaCa-2, compound added acutely (FIG. 20C)): 2 µM
radiosensitizing concentration, fold lower than Met (MiaPaCa-2 cells [4]; 1 μM versus Met 1 mM): 1,000 fold
radiosensitization (MiaPaCa-2 cells [4]; 24 h pretreatment (1 mM Met, 1 μM Mito-Met) before X-radiation): as effective as 1 mM Met
